Measured values published in patent publication US10047105B2, “Gyrase inhibitors” (Merck Sharp & Dohme Corp., priority 2009, dated 2018).
≈ marks a conversion by molar mass, not a printed value.

Tests used:
Type in all cases: cell-based
S. aureus ATCC 13709 = test: MIC, antibacterial potency, S. aureus; settings: S. aureus (SA); in µg/mL
S. pneumoniae ATCC 51916 = test: MIC, S. pneumoniae; settings: S. pneumoniae (Spn52); in µg/mL
E. coli 8 ATCC 25922 = test: MIC, E. coli 8 (wt); settings: E. coli 8 (EC8)

SMILES | MIC, SA (S. aureus ATCC 13709) | MIC Spn52 (S. pneumoniae ATCC 51916) | MIC EC8 (E. coli 8 ATCC 25922)
CCc1[nH]c2nc(Sc3cnc4nccnc4c3)nc(N(CCN)CC(C)C)c2c1Cl [701,148] | 64 | 64 | > 64 µg/mL
CCc1[nH]c2nc(Oc3cnc(C)nc3)nc(N3CC4C(N)C4C3)c2c1Cl (stereo not drawn) [701,151] | <=0.5 | 2 | 8 µg/mL (≈ 20.7 µM)
CCc1[nH]c2nc(Sc3cnc4cccnc4c3)nc(N3CC[C@@H](N)C3)c2c1C [701,161] | 4 | 16 | 64 µg/mL (≈ 158 µM)
CCc1[nH]c2nc(Sc3cccnc3)nc(N3C[C@@H]4[C@@H](N)[C@@H]4C3)c2c1C(F)F [701,162] | 16 | 32 | > 32 µg/mL
CCc1[nH]c2nc(Oc3cncc(C(=O)OC)c3)nc(N3CC4C(N)C4C3)c2c1Cl (stereo not drawn) [701,163] | >64 | >64 | > 64 µg/mL
CCc1[nH]c2nc(Sc3cncc(S(=O)(=O)N(C)C)c3)nc(N3CC[C@@H](N)C3)c2c1Cl [701,180] | 16 | 32 | > 64 µg/mL
CCc1[nH]c2nc(Sc3cncc(S(=O)(=O)N(C)C)c3)nc(N3CC4C(N)C4C3)c2c1C (stereo not drawn) [701,183] | 16 | 64 | > 64 µg/mL
CCc1[nH]c2nc(Oc3cncnc3)nc(N3CC4C(N)C4C3)c2c1C (stereo not drawn) [701,193] | 8 | 32 | 64 µg/mL (≈ 182 µM)
N[C@@H]1CCN(c2nc(Sc3cnc4cccnc4c3)nc3[nH]c(CC(F)(F)F)c(Cl)c23)C1 [701,209] | 2 | 4 | > 64 µg/mL
CCc1[nH]c2nc(Oc3cncc(C(N)=O)c3)nc(C)c2c1Cl [701,231] | 2 | 4 | > 64 µg/mL
CCc1[nH]c2nc(Oc3ccc4nccnc4c3)nc(C)c2c1Cl [701,232] | 1 | 4 | > 64 µg/mL
NC1C2CN(c3nc(Sc4cnc5ccc[n+]([O-])c5c4)nc4[nH]c(CC(F)(F)F)c(Cl)c34)CC12 (stereo not drawn) [701,236] | >64 | >64 | > 64 µg/mL
CCc1[nH]c2nc(N3CCN(c4cc(C(=O)OC)nc5ccc(Cl)cc45)CC3)ncc2c1Cl [701,237] | >64 | >64 | > 64 µg/mL
CCc1[nH]c2nc(Oc3ccc4nccnc4c3)ncc2c1Cl [701,238] | 4 | 32 | > 64 µg/mL
CCc1[nH]c2nc(Oc3cncnc3)nc(Oc3cnc(N)nc3)c2c1Cl [701,241] | 1 | 2 | > 64 µg/mL
CCc1[nH]c2nc(Oc3cncnc3)nc(Oc3cc(O)cc(C#N)c3)c2c1Br [701,249] | <=0.5 | <=0.5 | 8 µg/mL (≈ 17.7 µM)
CCc1[nH]c2nc(Oc3cncnc3)nc(Oc3cc(N)cc(C#N)c3)c2c1Br [701,250] | <=0.5 | <=0.5 | > 64 µg/mL
CCc1[nH]c2nc(Oc3cncnc3)nc(Oc3cccc(CNC)c3)c2c1Cl [701,251] | 1 | 2 | > 64 µg/mL

Next, values leading:

MIC, SA (S. aureus ATCC 13709) | MIC Spn52 (S. pneumoniae ATCC 51916) | MIC EC8 (E. coli 8 ATCC 25922) | SMILES
32 | 64 | > 64 µg/mL | CCc1[nH]c2nc(Sc3cnc4nccnc4c3)nc(N(CCN)CC(C)c3ccccc3)c2c1Cl (stereo not drawn) [701,147]
64 | >64 | > 64 µg/mL | CCc1[nH]c2nc(Sc3cccnc3)nc(Cl)c2c1C(F)F [701,153]
2 | 8 | > 64 µg/mL | CCc1[nH]c2nc(Sc3cncc(S(=O)(=O)N(C)C)c3)nc(N3CC4C(N)C4C3)c2c1Cl (stereo not drawn) [701,181]
>64 | >64 | > 64 µg/mL | CCc1[nH]c2nc(Sc3cncc(S(=O)(=O)N(C)C)c3)nc(N3CC[C@@H](N)C3)c2c1C [701,182]
>64 | >64 | > 64 µg/mL | CCc1[nH]c2nc(Sc3ccc4c(N5CC[C@@H](N)C5)cc(=O)oc4c3)nc(N3CC[C@@H](N)C3)c2c1Cl [701,184]
4 | 32 | > 64 µg/mL | CCc1[nH]c2nc(Sc3ccc4cc5c([n+]([O-])c4c3)CCN(C(=O)CCCC[C@@H]3SC[C@@H]4NC(=O)N[C@@H]43)C5)nc(N3CC4C(C3)C4(N)C(N)=O)c2c1Cl (stereo partly drawn) [701,229]
1. | 8 | > 64 µg/mL | CCc1[nH]c2nc(Oc3cncnc3)nc(Oc3ccc4nccnc4c3)c2c1C [701,233]
2 | 16 | 64 µg/mL (≈ 143 µM) | CCc1[nH]c2nc(Sc3cnc4ncn(C)c(=O)c4c3)nc(N3CC4C(N)C4C3)c2c1C (stereo not drawn) [701,239]
>64 | >64 | > 64 µg/mL | Cc1nc(Sc2cncc(C(N)=O)c2)nc2[nH]c(C(C)O)c(Cl)c12 (stereo not drawn) [701,240]
